Assay results published in the NIST ThermoML archive (doi:10.1016/j.jct.2007.06.009).
± gives the expanded uncertainty stated by the source.

Assays:
[1] = refractive index (Na D-line) (dimensionless); xn = mol fraction of the nth substance listed; settings: 303.15 K, 101 kPa, Liquid, Standard Abbe refractometry
[2] = excess molar enthalpy (molar enthalpy of mixing); xn = mol fraction of the nth substance listed; settings: 303 K, 101 kPa, Liquid
[3] = xn = mol fraction of the nth substance listed; settings: 303.15 K, 101 kPa, Liquid
[4] = 303.15 K; 101 kPa; Liquid
[5] = refractive index (Na D-line) (dimensionless); settings: 303.15 K; 101.33 kPa; Liquid; Standard Abbe refractometry

Which refractive index ([1]; x2 = 0) does the source give for `CCC(C)=O` [butanone] + CCCCO here?
The refractive index was 1.37383 ± 0.00031.

What about the refractive index ([1]; x2 = 0.0765) of the same compound?
Its refractive index is 1.37557 ± 0.00031.

And the refractive index ([1]; x2 = 0.1392)?
The refractive index was 1.37702 ± 0.00031.

What about the refractive index ([1]; x2 = 0.2097) of the same compound?
Its refractive index is 1.37867 ± 0.00031.

What about the refractive index ([1]; x2 = 0.2775) of the same compound?
The refractive index was 1.3802 ± 0.00031.

What about the refractive index ([1]; x2 = 0.3488) of the same compound?
Its refractive index is 1.3819 ± 0.00031.

And the refractive index ([1]; x2 = 0.442)?
Its refractive index is 1.38402 ± 0.00031.

And the refractive index ([1]; x2 = 0.4933)?
The refractive index was 1.38514 ± 0.00031.

What about the refractive index ([1]; x2 = 0.5008) of the same compound?
The refractive index was 1.38533 ± 0.00031.

What about the refractive index ([1]; x2 = 0.5577) of the same compound?
Its refractive index is 1.3866 ± 0.00031.

And the refractive index ([1]; x2 = 0.6404)?
Its refractive index is 1.38835 ± 0.00031.

What about the refractive index ([1]; x2 = 0.6474) of the same compound?
Its refractive index is 1.38848 ± 0.00031.

What about the refractive index ([1]; x2 = 0.7257) of the same compound?
The refractive index was 1.39011 ± 0.00031.

And the refractive index ([1]; x2 = 0.7944)?
Its refractive index is 1.39145 ± 0.00031.

What about the refractive index ([1]; x2 = 0.8562) of the same compound?
Its refractive index is 1.3926 ± 0.00031.

What about the refractive index ([1]; x2 = 0.9307) of the same compound?
Its refractive index is 1.39387 ± 0.00031.

What about the excess molar enthalpy ([2]; x2 = 0) of the same compound?
The excess molar enthalpy was 0 ± 0.008 kJ/mol.

What about the excess molar enthalpy ([2]; x2 = 0.134) of the same compound?
The excess molar enthalpy was 0.643 ± 0.066 kJ/mol.

And the excess molar enthalpy ([2]; x2 = 0.193)?
The excess molar enthalpy was 0.919 ± 0.084 kJ/mol.

And the excess molar enthalpy ([2]; x2 = 0.289)?
The excess molar enthalpy was 1.18 ± 0.1 kJ/mol.

And the excess molar enthalpy ([2]; x2 = 0.35)?
Its excess molar enthalpy is 1.36 ± 0.12 kJ/mol.

And the excess molar enthalpy ([2]; x2 = 0.425)?
The excess molar enthalpy was 1.47 ± 0.13 kJ/mol.

What about the excess molar enthalpy ([2]; x2 = 0.514) of the same compound?
Its excess molar enthalpy is 1.47 ± 0.12 kJ/mol.

What about the excess molar enthalpy ([2]; x2 = 0.619) of the same compound?
Its excess molar enthalpy is 1.41 ± 0.12 kJ/mol.

And the excess molar enthalpy ([2]; x2 = 0.7)?
The excess molar enthalpy was 1.23 ± 0.11 kJ/mol.

And the excess molar enthalpy ([2]; x2 = 0.769)?
The excess molar enthalpy was 1.12 ± 0.1 kJ/mol.

And the excess molar enthalpy ([2]; x2 = 0.82)?
Its excess molar enthalpy is 0.849 ± 0.079 kJ/mol.

What about the excess molar enthalpy ([2]; x2 = 0.911) of the same compound?
The excess molar enthalpy was 0.591 ± 0.062 kJ/mol.

What about the mass density ([3]; x2 = 0) of the same compound?
The mass density was 794.5 ± 0.3 kg/m3.

And the viscosity ([3]; x2 = 0)?
Its viscosity is 0.347 ± 0.014 mPa·s.

And the viscosity ([3]; x2 = 0.0704)?
The viscosity was 0.364 ± 0.014 mPa·s.

And the mass density ([3]; x2 = 0.0765)?
The mass density was 795 ± 0.3 kg/m3.

And the mass density ([3]; x2 = 0.1392)?
The mass density was 795.4 ± 0.3 kg/m3.

And the viscosity ([3]; x2 = 0.1468)?
The viscosity was 0.388 ± 0.015 mPa·s.

What about the mass density ([3]; x2 = 0.2097) of the same compound?
The mass density was 795.9 ± 0.3 kg/m3.

What about the viscosity ([3]; x2 = 0.2163) of the same compound?
Its viscosity is 0.421 ± 0.015 mPa·s.

What about the mass density ([3]; x2 = 0.2775) of the same compound?
The mass density was 796.4 ± 0.3 kg/m3.

And the viscosity ([3]; x2 = 0.2818)?
Its viscosity is 0.455 ± 0.015 mPa·s.

What about the viscosity ([3]; x2 = 0.3429) of the same compound?
Its viscosity is 0.479 ± 0.016 mPa·s.

What about the mass density ([3]; x2 = 0.3488) of the same compound?
Its mass density is 796.9 ± 0.3 kg/m3.

And the viscosity ([3]; x2 = 0.4244)?
The viscosity was 0.553 ± 0.017 mPa·s.

What about the mass density ([3]; x2 = 0.442) of the same compound?
The mass density was 797.6 ± 0.3 kg/m3.

What about the mass density ([3]; x2 = 0.4933) of the same compound?
The mass density was 798 ± 0.3 kg/m3.

And the viscosity ([3]; x2 = 0.4988)?
The viscosity was 0.615 ± 0.018 mPa·s.

And the mass density ([3]; x2 = 0.5008)?
The mass density was 798.1 ± 0.3 kg/m3.

And the mass density ([3]; x2 = 0.5577)?
The mass density was 798.5 ± 0.3 kg/m3.

And the viscosity ([3]; x2 = 0.5755)?
The viscosity was 0.704 ± 0.019 mPa·s.

And the mass density ([3]; x2 = 0.6404)?
Its mass density is 799.2 ± 0.3 kg/m3.

And the mass density ([3]; x2 = 0.6474)?
Its mass density is 799.3 ± 0.3 kg/m3.

What about the viscosity ([3]; x2 = 0.6474) of the same compound?
Its viscosity is 0.813 ± 0.021 mPa·s.

And the viscosity ([3]; x2 = 0.7105)?
Its viscosity is 0.925 ± 0.023 mPa·s.

What about the mass density ([3]; x2 = 0.7257) of the same compound?
Its mass density is 799.9 ± 0.3 kg/m3.

What about the viscosity ([3]; x2 = 0.7799) of the same compound?
Its viscosity is 1.091 ± 0.027 mPa·s.

And the mass density ([3]; x2 = 0.7944)?
Its mass density is 800.5 ± 0.3 kg/m3.

And the mass density ([3]; x2 = 0.8562)?
Its mass density is 801 ± 0.3 kg/m3.

And the viscosity ([3]; x2 = 0.8596)?
Its viscosity is 1.342 ± 0.032 mPa·s.

And the viscosity ([3]; x2 = 0.9263)?
Its viscosity is 1.645 ± 0.039 mPa·s.

And the mass density ([3]; x2 = 0.9307)?
The mass density was 801.6 ± 0.3 kg/m3.

Which results are given for `CCC(C)=O` [butanone]?
mass density [4]: 794.5 ± 0.3 kg/m3; viscosity [4]: 0.347 ± 0.014 mPa·s; refractive index [5]: 1.37383 ± 0.00031

Which mass density [4] does the source give for `CCCCO` [butan-1-ol] here?
The mass density was 802.2 ± 0.3 kg/m3.

What about the viscosity [4] of the same compound?
The viscosity was 2.195 ± 0.05 mPa·s.

What about the refractive index [5] of the same compound?
The refractive index was 1.39479 ± 0.00031.

With `CCCCO` [butan-1-ol] + CCC(C)=O as the compound, how does the refractive index ([1]; x1 = 1) read?
Its refractive index is 1.39479 ± 0.00031.

And the excess molar enthalpy ([2]; x1 = 1)?
The excess molar enthalpy was 0 ± 0.008 kJ/mol.

And the mass density ([3]; x1 = 1)?
Its mass density is 802.2 ± 0.3 kg/m3.

And the viscosity ([3]; x1 = 1)?
The viscosity was 2.195 ± 0.05 mPa·s.
